# Test results taken from patent US6582961B1, “Methods of protecting plants from pathogens” (priority 1998, dated 2003).
# How the values were obtained:
# Format in all cases: in vivo, Phaseolus vulgaris
# [1] = tested on: hydroxyproline-rich glycoprotein (HYP) RNA; test: Northern blot of hydroxyproline-rich glycoprotein (HYP) RNA in sprayed bean plants
# Procedure: FIG. 3 is a northern blot of RNA probed for expression of hydroxyproline-rich glycoproteins (“HPRG” or “HYP”). RNA was extracted from 14 day-old red kidney bean plants 24 hours after leaves of the plants were sprayed until wet with one of five treatments. Lane 1: water-only control. Lane 2: treatment with 3,500 ppm of PAA. Lane 3: treatment with 10,000 ppm of PAA. Lane 4: treatment with 3,500 ppm of PAA plus 200 ppm of inducer mixture. Lane 5: treatment with 10,000 ppm of PAA plus 200 ppm of inducer mixture. Lane 6: treatment with 200 ppm of inducer mixture, without presence of PAA.
# Bean plants were grown and treated as in Example 2. Total RNA was extracted and gels were loaded, run, and analyzed following the procedures discussed in Example 2. Probes for HYP were prepared following the procedures set forth in Blee and Anderson, supra.
# [2] = tested on: phenylalanine ammonia lyase (PAL) mRNA; test: Northern blot of phenylalanine ammonia lyase (PAL) mRNA in sprayed bean plants
# Procedure: FIG. 2 is a northern blot of RNA probed for expression of phenylalanine ammonia lyase (“PAL”). RNA was extracted from 14 day-old red kidney bean plants 24 hours after leaves of the plants were sprayed until wet with one of four treatments. Lane 1: water-only control. Lane 2: treatment with 3,500 ppm of PAA. Lane 3: treatment with 10,000 ppm of PAA. Lane 4: treatment with 3,500 ppm of PAA plus 200 ppm of inducer mixture.
# Bean plants were grown and treated in the same manner as in the previous Example, except that a water-only control was run, but not a test of systemic inducer without PAA. Total RNA was extracted and gels were loaded, run, and analyzed following the procedures discussed in previous Example, with the exception that no lane was run containing RNA from plants sprayed with a systemic inducer without an ROS present. Probe for PAL mRNA transcripts was prepared following the procedures set forth in Blee, K. A., and Anderson, A. J. “Defense-related transcript accumulation in Phaseolus vulgaris L. colonized by the arbuscular mycorrhizal fungus Glomus intraradices Schenck & Smith.” Plant Physiol. 110: 675-688 (1996).
# [3] = tested on: PR-1a gene RNA expression; test: Northern blot of PR-1a RNA in sprayed red kidney bean plants
# Procedure: FIG. 1 is a northern blot of RNA probed for expression of PR-1a protein. RNA was extracted from 14 day-old red kidney bean plants 24 hours after leaves of the plants were sprayed until wet with one of five treatments. Lane 1: treatment with 3,500 ppm of peracetic acid (“PAA”). Lane 2: treatment with 10,000 ppm of PAA. Lane 3: treatment with 3,500 ppm of PAA plus 200 ppm of salicylic acid/humic acid mixture (see Example 1; hereafter “inducer mixture”). Lane 4: treatment with 10,000 ppm of PAA and 200 ppm of inducer mixture. Lane 5: treatment with 200 ppm inducer mixture, without PAA.
# Fourteen-day old red kidney bean plants (Phaseolus vulgaris) were sprayed from an overhead boom until the leaves were wet and spray began to run off them. […]
# The plants were then left for 24 hours, after which the leaves were subjected to extraction of their total RNA by the procedure described in Logemann, J., et al, “Improved method for the isolation of RNA from plant tissues.” Anal Biochem. 163:16-20 (1987). […] Hybridization was observed and analyzed by chemiluminescent detection of the bound probes using the “Genius System,” (Boehringer Mannheim Corporation, Indianapolis, Ind.), following the manufacturer's directions. […]
smiles,measurement,setting,value
CC(=O)OO [peracetic acid],RNA levels from HYP genes,"[1]; peracetic acid 3,500 ppm, FIG. 3 lane 2",increase in RNA levels from HYP genes over that of the water control
same,RNA levels from HYP genes,"[1]; peracetic acid 10,000 ppm, compared to 3,500 ppm, FIG. 3 lane 3",substantially more hybridizing RNA
same,mRNA for PAL genes,"[2]; peracetic acid 3,500 ppm, 24 hours, FIG. 2 lane 2",increase in mRNA for PAL genes over that of the water control
same,mRNA for PAL genes,"[2]; peracetic acid 10,000 ppm, compared to 3,500 ppm, FIG. 2 lane 3",substantial increase
same,PR-1a gene RNA expression,"[3]; peracetic acid 3,500 ppm, leaves sprayed, RNA after 24 hours, FIG. 1 lane 1",increased
same,PR-1a gene RNA expression,"[3]; peracetic acid 10,000 ppm, 24 hours, FIG. 1 lane 2",higher amounts
